Laboratory results taken from US20210024483A1, “HETEROCYLCOALKENYL DERIVATIVES USEFUL AS AGONISTS OF THE GPR120 AND / OR GPR40” (Janssen Pharmaceutica NV, priority 2018, published 2021).

Target: T1, short form of the GPR120 receptor (Homo sapiens, UniProt Q5NUL3)
T1 construct: host or cells: PathHunter CHO-K1 GPR120S beta-Arrestin Cell Line
T1 sequence (Q5NUL3 1-361): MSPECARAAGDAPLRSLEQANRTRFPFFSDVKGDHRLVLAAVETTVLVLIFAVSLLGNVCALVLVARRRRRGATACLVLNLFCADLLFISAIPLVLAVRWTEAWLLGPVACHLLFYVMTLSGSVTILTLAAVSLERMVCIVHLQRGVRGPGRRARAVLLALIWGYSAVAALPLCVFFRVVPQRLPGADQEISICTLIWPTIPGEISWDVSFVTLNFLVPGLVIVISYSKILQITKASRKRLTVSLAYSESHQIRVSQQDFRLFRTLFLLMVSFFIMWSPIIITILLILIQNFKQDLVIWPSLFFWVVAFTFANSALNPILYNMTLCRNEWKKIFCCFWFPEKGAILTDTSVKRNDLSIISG
Test: Human GPR120 DiscoveRx PathHunter Beta-Arrestin Assay, Procedure B
Assay type: cell-based
Conditions: PathHunter CHO-K1 GPR120S cells, 5000 cells/well
Excerpt: Human GPR120 DiscoveRx PathHunter® Beta-Arrestin Assay
The binding of an agonist (medium/long chain fatty acids or small molecule agonists) to the G-protein-coupled receptor GPR120 activates phospholipase C, leading to release of intracellular Ca^+2 through the generation of inositol 1,4,5-trisphosphate (InsP3 or IP3). GPR120 activation can also trigger intracellular signaling via recruitment of Beta-Arrestin. In the present method, agonist-induced activation of the human GPR120 receptor is monitored through the use of PathHunter® CHO-K1 GPR120 Beta-Arrestin Cell Line engineered by DiscoveRx, as detailed below. The cell lines were designed to co-express both the ProLink/Enzyme Donor (PK)-tagged GPCR and the Enzyme […] (EA)-tagged Beta-Arrestin fusion proteins. Upon GPR120 receptor stimulation/activation, the EA-tagged Beta-Arrestin portion is translocated to the tagged receptor, where the two enzyme fragments are brought within close proximity. Under these conditions, these fragments can interact and form an active Beta-gal enzyme complex through Enzyme Fragment Complementation (EFC). This active Beta-gal complex can enzymatically hydrolyse the substrate to produce a detectable light signal; therefore, activation as a function of agonist concentration can be expressed as an EC50 value to determine relative compound activities. This in vitro assay therefore serves to assess compound agonist activity of the GPR120.
In Procedure β-arrestin B the cells used were PathHunter® CHO-K1 GPR120S β-Arrestin Cell Line, expressing the short form of the GPR120 receptor (Accession #[…]), with 5000 cells/well.
The selected CHO-K1 GPR120 β-Arrestin cells were cultured in Ham's F12 media supplemented with 10% fetal bovine serum (FBS), 1% Glutamine, 1× p/s, 800 μg/mL G418 and 300 μg/mL Hygromycin B (for selection). Cell stocks were maintained and grown in a sub-confluent state using standard cell culture procedures. The day before the experiment, the cells were harvested with non-enzymatic cell dissociation buffer and re-suspended in complete growth media at the desired concentration. A Corning 384-plate was then seeded with the proper number of cells in a volume of 25 μL, per well. The seeded plates were incubated overnight at 37° C.
On the day of the experiment, the Assay Buffer containing (a) HBSS with Ca^++ and Mg^++, (b) 20 mM HEPES, and (c) 0.1% BSA stabilizer (pH 7.4) was prepared. The growth medium was gently removed from the cell plates and 20 μL of Assay Buffer added to each well. The plate was then incubated at 37° C. for 60 min. Test compounds were serially diluted in Assay Buffer to desired concentrations (more particularly to one or more of the following μM concentrations: 25, 12.5, 6.25, 3.12, 1.56, 0.78, 0.39, 0.19, 0.10, 0.05, 0.02, 0.01). Five μL of compound dilution was then added to each well and the plate incubated at 37° C. for 90 min. The detection reagents were prepared according to the manufacture's instruction. Twelve μL of the detection reagents were added to each well and the plate incubated at room temperature for 60 min.
The plates were read on an EnVision instrument, using Protocol name: Luminescence, Plate type: 384 Costar, Measurement height: 3 mm, Measurement time: 1 s, Aperture: 384 Plate aperture. The % Activity relative to the positive control was calculated using the following equation:
The % Activity values were plotted versus the concentration of test compound and fitted to a sigmoidal dose-response curve with a Hill slope=1 (fixed value) using nonlinear regression with GraphPad Prism 5.0 to calculate the EC50 values. The Fitting Equation was: Y=Bottom+(Top−Bottom)/(1+10^((Log EC50−X)*HillSlope)), where X is the log of the concentration and Y is the response.

EC50: 0.243 µM
SMILES: Cc1c(CCC(=O)O)ccc(OCC2=C(c3ccc(Cl)cc3)COCC2)c1C [ID No. 745, 3-[4-[[5-(4-chlorophenyl)-3,6-dihydro-2H-pyran-4-yl]methoxy]-2,3-dimethyl-phenyl]propanoic acid]
